This is an account of results in patent publication US9066922B2, “Pharmaceutical composition for the treatment or prevention of diseases involving obesity, diabetes, metabolic syndrome, neuro-degenerative diseases and mitochondria dysfunction diseases” (MD BIOALPHA CO., LTD., priority 2005, dated 2015).

Series [1] deals with diet-induced obesity (DIO) C57BL/6 mice. In words: Body weight, dietary intake, fat, blood parameters and histology in diet-induced obesity (DIO) C57BL/6 mice. It is filed as in vivo. An excerpt:
FIGS. 16A through 16C show whole laparotomized states of animals after administration of β-lapachone to DIO C57BL/6 mice for 56 days and results of oil red O staining and EM examination on fat accumulation in liver tissues. […] In order to confirm improvement in condition of fatty liver in FIG. 16, accumulated fat in the liver was stained using oil red O staining and as a result, it was confirmed that fat has diminished by 90% or more, as compared to a control group.
Referring to FIG. 17, after daily administration of β-lapachone to DIO C57BL/6 mice at a dose of 50 mg/kg via an oral route, animals were laparotomized on day 56 of β-lapachone administration and perilipin staining was performed on gonadal adipose tissues.
Referring to FIG. 19, after daily administration of β-lapachone to DIO C57BL/6 mice at a dose of 50 mg/kg via an oral route, H&E staining of brown adipose tissues was performed on day 56 of administration.

Series [2] concerns AMPK. In words: Activation of AMPK in liver and gonadal adipose tissues of C57BL/6 mice. It counts as in vivo. To be noted: 5 mg/kg via tail veins, 2 hours and 4 hours. As for the experimental part:
A vehicle and 5 mg/kg of β-lapachone were administered via tail veins to C57BL/6 mice for 2 hours and 4 hours, respectively. Liver and gonadal adipose tissues were removed and activity of AMPK kinase was assayed. A degree of activation was expressed as a CPM value of radioisotopes. Using the same manner, HepG2 cells, a cell line derived from human liver, were treated with 10 μM β-lapachone for 30 min, and then an assay for AMPK kinase activity was carried out.

Series [3] concerns DIO C57BL/6 mice. In words: Spontaneous locomotor activity in DIO C57BL/6 mice. It counts as in vivo. As to conditions: 3 hours after administration, measured for 7 hours, vs vehicle and control groups. The method, then: β-lapachone was administered to DIO C57BL/6 mice, and 3 hours later, spontaneous locomotor activity was measured using Versa MAX Activity Monitors & Analyzer (AccuSan Instruments, Columbus, Ohio). The monitor used to measure motion of animals was a 41 cm×41 cm Plexiglas chamber (height: 30 cm) equipped with infrared rays at intervals of 2.5 cm along the x- and y-axes, respectively, whereby 16 scanning lines are respectively arranged on front/rear and right/left sides of the chamber. In order to distinguish between spontaneous locomotor and stereotypic/grooming behavior, animal activity was measured by taking continuous interference of two different scanning lines caused by mice as an effective determination standard. A β-lapachone-administered group, a vehicle-administered group and a control group were respectively placed in each measuring apparatus, and activity and motion of animals were measured for 7 hours. For acclimation of animal to new environment, mice were placed in the apparatus 2 hours prior to measurement.

The test system of series [4] is endothelial nitric oxide synthase (eNOS). Kind of series: Phosphorylation of eNOS in HUVEC. It counts as cell-based, Human. As to conditions: 10 μM. As for the experimental part:
It is well-known that activation of AMPK activates NRF-1 and facilitates mitochondrial biogenesis. In addition, NO/cGMP activates PGC-1a and NRF-1 to facilitate mitochondrial biogenesis. In order to ascertain whether β-lapachone, which activates AMPK, is involved in production of nitric oxide (NO), a degree of phosphorylation, increasing the activity of endothelial nitric oxide synthase (eNOS), was determined. In order to examine phosphorylation of eNOS by the action of β-lapachone, Human Umbilical Vein Endothelial Cells (HUVEC) were seeded onto a 60-mm plate at a density of 1×10^5 cells, and cultured in EBM2+5% FBS medium for 24 hours. The culture medium was replaced with a serum-free EBM2 medium, and cells were treated with β-lapachone (10 μM) for a predetermined period of time. Phosphorylated eNOS was observed using Anti-pS1177 eNOS.

Series [5] has as its system AMPK and ACC. In words: Phosphorylation of AMPK & ACC in DIO C57BL/6 mice (Western blot). As to conditions: 50 mg/kg daily oral. It counts as in vivo. As for the experimental part:
In order to investigate anti-obesity effects of β-lapachone, β-lapachone was administered daily to diet-induced obesity (DIO) mice at a dose of 50 mg/kg via an oral route, and effects of β-lapachone on phosphorylation of AMPK and ACC, which play an important role in energy metabolism and lipogenesis in the liver and gonadal adipose tissues, were examined. […] Phosphorylated AMPK is believed to activate metabolism associated with energy. Whereas, it is believed that ACC, which is affected by activation of AMPK, is phosphorylated and lipogenic activity thereof is then inhibited, which will then exert some effects on lipid metabolism including inhibition of obesity.

Series [6] relates to Sprague-Dawley rats. Kind of series: Acute toxicity test, oral administration. It is filed as in vivo. To be noted: oral, 50, 100 and 200 mg/kg, observed for 2 weeks.
The test system of series [7] is mRNAs for HK2, GLUT2 and GLUT4. In words: Gene expression of proteins involved in glucose metabolism in DIO mice. It is filed as in vivo, C57BL/6 mice. As to conditions: 50 mg/kg daily oral, liver and gonadal adipose tissues, vs control group. As for the experimental part:
β-lapachone was administered daily to diet-induced obesity (DIO) mice at a dose of 50 mg/kg via an oral route, and levels of mRNAs for hexokinase 2 (HK2) (21,22), glucose transporter (GLUT) 2 and GLUT4 (18,19,20) in the liver and gonadal adipose tissues were confirmed by real-time quantitative PCR. GLUT is well-known as a protein that mediates intracellular uptake and expenditure of blood glucose in organs such as liver, adipocytes and myoblast cells, whereas HK2, an enzyme belonging to a glucokinase class, phosphorylates […] that are thus allowed to enter glycolytic pathways. […] Increased levels of GLUT2 and GLUT4 facilitate intracellular uptake of blood glucose, thus presenting the possibility of β-lapachone as an anti-diabetic drug.

The mark [8] stands for this setting: DIO C57BL/6 mice, 56 days, vs control group.
Where [9] appears, read: DIO mice, 50 mg/kg daily oral, day 56.
Where [10] appears, read: DIO mice, 50 mg/kg daily oral, days 3, 7, 14, 28 and 56.

As for `CC1(C)CCC2=C(O1)c1ccccc1C(=O)C2=O` [Compound 1, β-Lapachone], the “visceral fat and body weight (laparotomized state)” value in series [1] (DIO C57BL/6 mice, 56 days) is “conspicuous decreases in visceral fat and body weight”. Further, in series [1] (setting [8]), the “EM examination on liver tissues: fat vacuoles and glycogen stores” value was “remarkably decreased fat vacuoles and glycogen stores”; the “EM examination on liver tissues: mitochondrial numbers” value is on record as “significant increases in mitochondrial numbers”; the “decrease of accumulated fat in the liver (oil red O staining)” value was not below 90%; the “weight changes in various organs” value is “significant changes in weight of tissues”. The body weight entry in series [1] (DIO mice on high-fat diet, 50 mg/kg daily oral, 56 days, vs control group) is reported as “continuous weight loss for 56 days”. Moreover, the dietary intake entry in series [1] (DIO mice, 50 mg/kg daily oral, 56 days) is listed as “decreases in dietary intake for first two weeks”. In series [1] (setting [9]), the “size of adipocytes in brown adipose tissue (EM examination)” value was “remarkably decreased”, the “size of adipocytes in brown adipose tissues (H&E staining)” value is given as “remarkably decreased” and the “size of adipocytes in gonadal adipose tissues (perilipin staining)” value is listed as “remarkably decreased”. Besides, in series [1] (setting [10]), the “blood fat and glucose levels” value is recorded as “significantly improved”; the “blood level of resistin” value is reported as “significantly improved”; the “insulin resistance and leptin resistance” value is on record as “also improved”. Moreover, the “AMPK activity in the liver and gonadal adipose tissues” value in series [2] was “increased AMPK activity”. The spontaneous locomotor activity entry in series [3] was “significant difference in motion and locomotor activity”. In series [4], the “phosphorylation of eNOS after the maximum” value is recorded as “gradually diminished, thereby not observed 2 hours later” and the “time of maximum increase of phosphorylation of eNOS (Anti-pS1177 eNOS)” value came to 30 min. Also, the “phosphorylation of AMPK and ACC in the gonadal and liver tissues” value in series [5] was “has an effect on phosphorylation of AMPK and ACC”. In series [6], the mortality result is “none of the animals died”. Further, in series [7], the “GLUT2 mRNA expression” value is on record as “significant increases”, the “GLUT4 mRNA expression” value is “significant increases” and the “HK2 mRNA level” value is “decreased”.
